From ChEMBL document CHEMBL1157273, “Sphaeric acid, a new succinic acid derivative from a Sphaeropsis sp” (J Nat Prod, 1999)
Active and inactive are the calls of the source. No cut-off for these calls is given here.

How the values were obtained:
[1] = tested on: Pseudomonas aeruginosa; experiment: Antimicrobial activity against Pseudomonas aeruginosa by disk diffusion assay; format: functional, organism-based
[2] = tested on: Aspergillus niger; experiment: Antimicrobial activity against Aspergillus niger by disk diffusion assay; format: functional, organism-based
[3] = tested on: Geotrichum candidum; experiment: Antimicrobial activity against Geotrichum candidum by disk diffusion assay; format: functional, organism-based
[4] = tested on: Candida albicans; experiment: Antimicrobial activity against Candida albicans by disk diffusion assay; format: functional, organism-based
[5] = tested on: Artemia salina; experiment: Toxicity in Artemia salina after 24 hrs; format: organism-based; settings: in vivo
[6] = tested on: Escherichia coli; experiment: Antimicrobial activity against Escherichia coli by disk diffusion assay; format: functional, organism-based
[7] = tested on: Fusarium oxysporum; experiment: Antimicrobial activity against Fusarium oxysporum by disk diffusion assay; format: functional, organism-based

With `CCCCCCCC[C@H](C(=O)O)[C@H](C)C(=O)O` [SPHAERIC ACID] the Activity [1] was “inactive”, the Activity [2] was “inactive” and the Activity [3] was “inactive”. For the same compound, the Activity [4] was “inactive”, the Activity [5] was “Non-toxic” and the Activity [6] was “inactive”. The Activity [7] was “inactive”.
